According to patent publication US9895363B2, “Methods for modulating function of proliferating cell nuclear antigen (PCNA) and treating cancer with PCNA-targeting compounds” (University of Cincinnati, priority 2010, dated 2018):

Legend:
CT-26 colon cancer cells = experiment: Growth inhibition by MTT staining, CT-26; format: cell-based; conditions: CT26; Mouse tumor cells; cell line not given; read-out: IC50 Values, cell line cell blank (first row below UV2237)
Protocol: (§1) Growth inhibitory effects of PCNA-I1 and PCNA-I2 were assessed in human cancer cell lines, mouse cancer cell lines, immortalized mouse cell lines, and human primary cell lines. Specifically, growth inhibitory effects of PCNA-I1 and PCNA-I2 were assessed using MTT staining in the following cells lines: 1) human cancer cell lines including LNCaP (androgen receptor […]), 22Rv1, DU-145, LAPC-4, and PC-3 (androgen receptor […]) prostate cancer cells; MCF-7 and T47D breast cancer cells; A375 and MDA-MB435 melanoma cells; 2) mouse cancer cell lines including TRAMP-C2RE3 prostate cancer cells, B16 and K1735 melanoma cells, UV2237 fibrosarcoma cells, and CT-26 colon cancer cells; 3) immortalized mouse lung cell lines and mouse endothelial cell lines; and 4) primary human cell lines including umbilical endothelial cells (HUVEC, PromoCell, Heidelberg, Germany), primary bone marrow mesenchymal stem cells (HuMSC, PromoCell), primary human mammary epithelial cells (HuBrEC, Lonza, Walkersville, Md.), primary human prostate epithelial cells (HuPrEC, Lonza), and primary mouse spleen lymphocytes (isolated in this laboratory), and primary mouse bone marrow stromal cells (isolated in this laboratory). […]
(§2) IC50 values were derived from growth inhibition curves. […] Inhibition of cell growth was calculated using the formula: growth inhibition (%)=(1−A570 of treated/A570 of control)×100. […]

[1] = system: primary mouse bone marrow stromal cells; experiment: Growth inhibition, mouse bone marrow stromal cells; format: cell-based; conditions: normal cells, read-out: IC50 Values, Bone Marrow Stroma Cells
Protocol: as §1, §2

PCNA = target: T1, PCNA (Homo sapiens, UniProt P12004); experiment: PCNA trimer formation assay, PC-3 cell lysate; format: biochemical; conditions: PC-3 lysate, 1 μM or 10 μM, 3 H, SDS-PAGE; FIG. 9(A)
T1 construct: endogenous PCNA was knocked down with transfection of PCNA-specific siRNA; endogenous in cells; host or cells: PC-3
T1 sequence (P12004 whole entry): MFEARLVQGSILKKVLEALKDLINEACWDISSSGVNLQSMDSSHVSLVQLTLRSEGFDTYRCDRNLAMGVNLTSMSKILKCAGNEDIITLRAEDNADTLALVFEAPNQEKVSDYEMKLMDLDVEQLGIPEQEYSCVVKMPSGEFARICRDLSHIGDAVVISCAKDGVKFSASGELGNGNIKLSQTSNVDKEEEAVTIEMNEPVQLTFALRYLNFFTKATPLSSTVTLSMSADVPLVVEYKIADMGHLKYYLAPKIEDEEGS
Protocol: The effect of PCNA-I1, PCNA-I2, PCNA-I3, PCNA-I4, PCNA-I6, PCNA-I7, PCNA-I8, PCNA-I9, and PCNA-I10 on PCNA trimer formation was investigated by SDS-PAGE and immunoblotting. Specifically, a trimer formation assay was performed on both PC-3 cell lysates and purified recombinant protein. The trimer formation assay was performed on purified recombinant protein to determine whether the effects of PCNA compounds on the stable trimer formation required the participation of other cellular proteins.
Purified His-PCNA (0.1 μg/reaction) and PC-3 cell lysates (50 μg/reaction) were incubated for 3 H at room temperature in a reaction buffer (40 mM Tris-HCl, pH 7.5, 0.2 mg/mL BSA, 10 mM MgCl2, and 10% glycerol) in the absence or presence of DMSO (0.1% vehicle control) or PCNA-I1, PCNA-I2, PCNA-I3, PCNA-I4, PCNA-I6, PCNA-I7, PCNA-I8, PCNA-I9, or PCNA-I10 (1 μM or 10 μM). The reaction was stopped by addition of the SDS-PAGE sample buffer without a reducing agent. The samples were resolved in SDS-PAGE without boiling and analyzed by immunoblotting using PCNA antibody.

LNCaP cells = experiment: DNA damage, apoptosis and cell cycle proteins by immunoblot, LNCaP; format: cell-based, Human
Protocol: Fluorescence-activated cell sorting (FACS) analysis was performed on both PC-3 cells and LNCaP cells using PCNA-I1. Specifically, cells were treated with 1 or 10 μM PCNA-I1 and sampled for the flow cytometry analysis at 24 H, 48 H, and 72 H. Expression of DNA damage and apoptosis-related proteins in PC-3 cells and LNCaP cells was also determined. Cisplatin, a well-known drug that induces DNA damage and apoptosis, was included in the experiment. LNCaP cells were treated for 6 H, 12 H, or 18 H with 10 μM PCNA-I1, 10 μM cisplatin, or both.
To further explore the differential effects of PCNA-I1 on LNCaP and PC-3 cells, the effects of PCNA-I1 and cisplatin on expression of cell cycle- and apoptosis-related proteins in the two cell lines were compared. LNCaP cells and PC-3 cells were treated with 1 μM PCNA-I1 and/or 5 μM cisplatin for 12 H, 18 H, or 24 H and cell lysates were sampled for immunoblotting.

With `Cc1ccsc1C(=O)N/N=C/c1ccc2ccccc2c1O` [PCNA-I1] the IC50 (CT-26 colon cancer cells) was 130 nM, the IC50 [1] was 1900 nM and the “Portion of PCNA in the trimer form” value (PCNA) was “significantly elevated”. The “Expression of retinoblastoma (Rb) and cyclin D1” value (LNCaP cells; LNCaP and PC-3, 1 μM PCNA-I1 and/or 5 μM cisplatin, 12-24 H) was “moderately downregulated expression of cell cycle-regulating proteins”, the “Phosphorylation of p53, single agent” value (LNCaP cells; LNCaP, 10 μM) was “induced” and the “Expression of p21 protein” value (LNCaP cells; LNCaP, 10 μM PCNA-I1 and/or 10 μM cisplatin) was “enhanced expression of p21 protein at 6 H and 12 H”. The “PARP cleavage, single agent” value (LNCaP cells; LNCaP, 10 μM alone) was “induced PARP cleavage” and the “DNA double strand break (γH2AX induction), single agent” value (LNCaP cells; LNCaP, 10 μM alone, 6-18 H, FIG. 17(A)) was “induced moderate double strand break (DSB) of DNA”.
